Experimental data from patent publication US8178678B2, “Bis-quaternary ammonium salts and methods for modulating neuronal nicotinic acetylcholine receptors” (University of Kentucky Research Foundation, priority 2006, dated 2012).

Key:
[1] = target: T1, Rat Striatal Nicotinic Receptors ([^3H]NIC binding sites; α4β2) (Rattus norvegicus, UniProt P09483+P12390); experiment: Inhibition of [^3H]NIC binding; conditions: 1 h; 100 nM analog; 3 nM [^3H]NIC; nonspecific 10 μM cytisine; rat brain membranes
T1 construct: Whole brain, excluding cortex and cerebellum, was homogenized in 20 vol of ice-cold buffer; from tissue; host or cells: rat brain membranes (whole brain excluding cortex and cerebellum)
T1 sequence (P09483 31-630): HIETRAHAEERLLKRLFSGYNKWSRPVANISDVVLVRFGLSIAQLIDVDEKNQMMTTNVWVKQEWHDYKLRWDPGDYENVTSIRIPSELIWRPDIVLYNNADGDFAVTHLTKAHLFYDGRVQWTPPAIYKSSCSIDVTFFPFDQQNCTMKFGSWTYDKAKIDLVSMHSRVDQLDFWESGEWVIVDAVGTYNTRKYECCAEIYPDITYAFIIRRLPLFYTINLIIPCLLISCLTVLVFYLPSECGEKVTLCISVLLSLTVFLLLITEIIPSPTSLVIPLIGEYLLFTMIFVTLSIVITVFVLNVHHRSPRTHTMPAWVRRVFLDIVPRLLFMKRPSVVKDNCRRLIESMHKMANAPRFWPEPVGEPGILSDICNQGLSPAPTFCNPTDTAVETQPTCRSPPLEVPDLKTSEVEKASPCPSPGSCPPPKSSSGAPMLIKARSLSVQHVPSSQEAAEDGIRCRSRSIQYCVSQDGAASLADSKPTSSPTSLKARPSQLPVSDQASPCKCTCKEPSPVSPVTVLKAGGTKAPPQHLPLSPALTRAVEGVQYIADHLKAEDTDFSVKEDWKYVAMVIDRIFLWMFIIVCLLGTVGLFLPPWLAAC
T1 sequence (P12390 25-500): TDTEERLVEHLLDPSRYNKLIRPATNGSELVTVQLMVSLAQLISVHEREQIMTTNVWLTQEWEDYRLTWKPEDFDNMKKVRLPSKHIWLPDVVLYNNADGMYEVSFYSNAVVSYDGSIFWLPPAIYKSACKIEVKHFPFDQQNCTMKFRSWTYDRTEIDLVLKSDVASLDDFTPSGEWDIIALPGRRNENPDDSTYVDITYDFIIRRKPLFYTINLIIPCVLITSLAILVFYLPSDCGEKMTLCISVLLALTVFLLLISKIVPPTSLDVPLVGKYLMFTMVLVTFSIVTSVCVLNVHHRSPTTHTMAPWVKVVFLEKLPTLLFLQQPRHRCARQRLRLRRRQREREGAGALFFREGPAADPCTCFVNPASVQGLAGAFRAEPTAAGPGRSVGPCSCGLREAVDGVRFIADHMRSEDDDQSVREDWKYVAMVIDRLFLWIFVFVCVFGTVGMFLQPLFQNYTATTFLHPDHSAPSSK
Procedure: (§1) Homogenate was centrifuged (25,000 g, 15 min, 4° C). Pellets were resuspended in 20 vol buffer and incubated at 37° C., for 10 min, cooled to 4° C. and centrifuged (25,000 g, 15 min, 4° C.). Pellets were resuspended and centrifuged using the same conditions. […] Upon use, final pellets were resuspended in 20 vol assay buffer. Samples (250 μl) contained 100-140 μg of membrane protein, 3 nM [^3H]-S-nicotine or 3 nM [^3H]-methyllycaconitine (MLA), and bis-quaternary ammonium analog (100 nM) in assay buffer containing 50 mM Tris. Control was in the absence of analog. In [^3H]-S-nicotine and [^3H]-methyllycaconitine binding assays, nonspecific binding was determined in the presence of 10 μM cytisine and 10 μM S-nicotine, respectively. Incubations proceeded for 60 min at room temperature using 96-well plates and were terminated by harvesting on Unifilter-96 GF/B filter plates presoaked in 0.5% polyethylenimine, using a Packard FilterMate harvester. After washing 5 times with 350 μl ice-cold assay buffer, filter plates were dried (60 min, 4° C.), bottom-sealed, and filled with Packard's MicroScint 20 cocktail (40 μl/well). After 60 min, filter plates were top-sealed, and radioactivity determined using a Packard TopCount. Protein concentrations were determined using the Bradford dye-binding procedure bovine serum albumin as the standard.
Specific binding in the [^3H]NIC binding assay is calculated as the difference between the total binding of 3 nM [^3H]NIC and nonspecific binding in the presence of 10 μM cold cytisine. […] Analog-induced inhibition of S-nicotine-evoked [^3H]DA release is calculated as a percent of that in the absence of the bis-quaternary ammonium analog.

[2] = target: T2, Rat Striatal Nicotinic Receptors ([^3H]MLA binding sites; α7) (Rattus norvegicus, UniProt Q05941); experiment: Inhibition of [^3H]MLA (methyllycaconitine) binding; conditions: 100 nM analog; [^3H]MLA; nonspecific S-nicotine; rat brain membranes; read-out: [^3H]MLA binding, % inhibition
T2 construct: Whole brain, excluding cortex and cerebellum, was homogenized in 20 vol of ice-cold buffer; from tissue; host or cells: rat brain membranes (whole brain excluding cortex and cerebellum)
T2 sequence (Q05941 23-502): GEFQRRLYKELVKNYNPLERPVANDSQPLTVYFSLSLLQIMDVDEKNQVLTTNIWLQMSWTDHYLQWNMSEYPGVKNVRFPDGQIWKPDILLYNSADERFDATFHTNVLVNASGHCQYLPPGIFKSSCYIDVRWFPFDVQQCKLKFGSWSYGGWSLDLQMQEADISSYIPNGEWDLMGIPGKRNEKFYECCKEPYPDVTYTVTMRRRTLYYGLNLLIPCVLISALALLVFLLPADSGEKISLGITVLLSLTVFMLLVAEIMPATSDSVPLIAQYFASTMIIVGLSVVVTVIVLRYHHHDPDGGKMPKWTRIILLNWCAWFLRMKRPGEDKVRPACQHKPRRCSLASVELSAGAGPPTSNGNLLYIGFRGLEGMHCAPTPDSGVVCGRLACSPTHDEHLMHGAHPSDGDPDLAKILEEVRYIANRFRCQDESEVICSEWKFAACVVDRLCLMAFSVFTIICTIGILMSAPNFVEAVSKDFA
Procedure: as §1, with “standard. […]” for “standard.”

[3] = test system: nicotinic receptors mediating S-nicotine-evoked [^3H]DA release in rat striatal slices; experiment: Inhibition of S-nicotine-evoked [^3H]dopamine release from superfused rat striatal slices; type: cell-based; conditions: 1 h; 100 nM analog superfused 60 min before NIC 10 μM; rat striatal slices; read-out: [^3H]DA release, % inhibition of S-nicotine-evoked release
Procedure: Rat striatal slices (500 μm thickness, 6-8 mg wet weight) were incubated for 30 minutes in Krebs buffer (118 mM NaCl, 4.7 mM KCl, 1.2 mM MgCl2, 1.0 mM NaH2PO4, 1.3 mM CaCl2, 11.1 mM glucose, 25 mM NaHCO3, 0.11 mM L-ascorbic acid, and 0.004 mM disodium EDTA; pH 7.4, and saturated with 95% O2/5% CO2) in a metabolic shaker at 34° C. Slices were rinsed with 15 mL of fresh buffer and incubated for an additional 30 minutes in fresh buffer containing 0.1 μM [^3H]dopamine (DA; 6 slices/3 mL). Subsequently, slices were rinsed with 15 mL of fresh buffer and transferred to a glass superfusion chamber. Slices were superfused (1.0 mL/min) for 60 minutes with Krebs buffer containing nomifensine (10 μM) and pargyline (10 μM) and maintained at 34° C., pH 7.4, with continual aeration (95% O2/5% CO2). Two five minute samples (5 mL each) were collected to determine basal outflow of [^3H]DA. The bis-quaternary ammonium analogs were added to the superfusion buffer after the collection of the second sample and remained in the buffer until 12 consecutive five minute samples were collected. Subsequently, S-nicotine (NIC; 10 μM) was added to the buffer and an additional 12 consecutive five minute samples were collected. At the end of the experiment, each slice was solubilized and the [^3H] content of the tissue determined.
Radioactivity in the superfusate and tissue samples was determined by liquid scintillation spectroscopy. Fractional release for tritium collected in each sample was divided by the total tritium present in the tissue at the time of sample collection and was expressed as a percentage of total tritium. Basal [^3H]outflow was calculated from the average of the tritium collected in the two five minute samples just before addition of the quaternary analog. The sum of the increase in collected tritium resulting from either exposure to the test compound or exposure to S-nicotine in the absence and presence of the test compound equaled total [^3H]overflow. [^3H]Overflow was calculated by subtracting the [^3H]outflow during an equivalent period of prestimulation from the values in samples collected during and after drug exposure. Inasmuch as the radiolabelled compounds were not separated and identified, the tritium collected in superfusate is referred to as either [3H]outflow or [^3H]overflow, rather than as [^3H]DA. [^3H]Overflow primarily represents [^3H]DA in the presence of nomifensine and pargyline in the superfusion buffer.
The bis-quaternary ammonium analogs were also evaluated for their ability to inhibit NIC evoked [^3H]DA release. In these experiments, the striatal slices were superfused for 60 minutes with 100 nM concentration of the quaternary analogs prior to NIC (10 μM) exposure. Antagonist activity was evaluated by comparing the NIC-evoked [^3 H]overflow in the absence and presence of the analogs. The relative order of potency of the quaternary analogs for inhibition of NIC-evoked [^3H]DA release from rat striatal slices is illustrated in Table 1.
^aData are % inhibition at 100 nM concentration of the bis-quaternary ammonium analogs for at least 1-3 independent experiments; with the exception of when a Ki value in μM is provided, in which case a full concentration effect was evaluated. Specific binding in the [^3H]NIC binding assay is calculated as the difference between the total binding of 3 nM [^3H]NIC and nonspecific binding in the presence of 10 μM cold cytisine. Specific binding for the [^3H]MLA binding assay is calculated as the difference between the total binding of […] [^3H]MLA to the receptors alone and its nonspecific binding in the presence of […] cold S-nicotine. Analog-induced inhibition of S-nicotine-evoked [^3H]DA release is calculated as a percent of that in the absence of the bis-quaternary ammonium analog.

| SMILES | inhibition at 0.1 µM [1] [%] | inhibition at 0.1 µM [2] [%] | inhibition at 0.1 µM [3] [%] |
| --- | --- | --- | --- |
| c1cc(CCCCC[n+]2cccc3ccccc32)cc(CCCCC[n+]2cccc3ccccc32)c1 [Example 68, 1,3-bis-(5-quinolinium-pentyl)-benzene dibromide] | 8.3 | 14 | 16 |
| c1ccc(CCCCC[n+]2ccc3ccccc3c2)c(CCCCC[n+]2ccc3ccccc3c2)c1 [Example 41, 1,2-bis-(5-isoquinolinium-pentyl)-benzene dibromide] | 1.9 | 0 | 54 |
| C(#Cc1cccc(C#CCCC[n+]2cccc(-c3ccccc3)c2)c1)CCC[n+]1cccc(-c2ccccc2)c1 [Example 58, 1,3-bis-[5-(3-phenyl-pyridinium)-pent-1-ynyl]-benzene dibromide] | 3.4 | 11 | 8 |
| Cc1cc[n+](CCC#Cc2ccc(C#CCC[n+]3ccc(C)c(C)c3)cc2)cc1C [Example 100, N,N′-[(1,4-phenylene)-bis-(4-butynyl)]-bis-(3,4-dimethyl-pyridinium)dibromide] | 3 | 0 | 31 |
| Cc1cc[n+](CCCC#Cc2cccc(C#CCCC[n+]3ccc(C)cc3)c2)cc1 [Example 50, 1,3-bis-[5-(4-methyl-pyridinium)-pent-1-ynyl]-benzene dibromide] | 10 | 6.4 | 26 |
| Cc1cc(C)c[n+](CCC#Cc2ccc(C#CCC[n+]3cc(C)cc(C)c3)cc2)c1 [Example 101, N,N′-[(1,4-phenylene)-bis-(4-butynyl)]-bis-(3,5-dimethyl-pyridinium)dibromide] | 0 | 0 | 14 |
| Cc1cc[n+](CCCCCc2cccc(CCCCC[n+]3ccc(C)c(C)c3)c2)cc1C [Example 66, 1,3-bis-[5-(3,4dimethyl-pyridinium)-pentyl]-benzene dibromide] | 10.5 | 7 | 35 |
| CN1CCC[C@@H]1c1ccc[n+](CCCC#Cc2cccc(C#CCCC[n+]3cccc([C@H]4CCCN4C)c3)c2)c1 [Example 56, 1,3-bis-[5(2′-S-nicotinium-pent-1-ynyl)]benzene dibromide] | 3.1 | 2.6 | 18 |
| Cc1cc[n+](CCOCCOCCOCC[n+]2ccc(C)cc2)cc1 [Example 83, N,N′-{2,2′-[oxybis-(2,1-ethandiyloxy)]bis-ethyl}-bis(4-methylpyridinium)dichloride] | 15 | 7 | 53 |
| C(#Cc1cccc(C#CCCC[n+]2cccc3ccccc32)c1)CCC[n+]1cccc2ccccc21 [Example 54, 1,3-bis-(5-quinolinium-pent-1-ynyl)-benzene dibromide] | 16 | 3.9 | 17 |
| Cc1cc[n+](CCCC#Cc2ccccc2C#CCCC[n+]2ccc(C)cc2)cc1 [Example 25, 1,2-bis-[5-(4-methyl-pyridinium)-pent-1-ynyl]-benzene dibromide] | 2.5 | 5.4 | 12 |
| Cc1cc[n+](CCCCCc2ccccc2CCCCC[n+]2ccc(C)cc2)cc1 [Example 36, 1,2-bis-[5-(4-methyl-pyridinium)-pentyl]-benzene dibromide] | 0 | 3.1 | 11 |
| OCCCc1ccc[n+](CCCCc2ccc(CCCC[n+]3cccc(CCCO)c3)cc2)c1 [Example 17, N,N′-[1,4-phenylenedi-(4-butanyl)]-bis-[3-(3-hydroxy-propyl)-pyridinium]dibromide] | 0 | 3 | 40 |
| Cc1cc[n+](CCCC#Cc2ccccc2C#CCCC[n+]2ccc(C)cc2C)c(C)c1 [Example 26, 1,2-bis-[5-(2,4-dimethyl-pyridinium)-pent-1-ynyl]-benzene dibromide] | 0 | 0 | 18 |
| Cc1cc[n+](CCCC#Cc2ccccc2C#CCCC[n+]2ccc(C)c(C)c2)cc1C [Example 27, 1,2-bis-[5-(3,4-dimethyl-pyridinium)-pent-1-ynyl]-benzene dibromide] | 4.2 | 4.2 | 23 |
| Cc1cccc[n+]1CCCC#Cc1ccccc1C#CCCC[n+]1ccccc1C [Example 23, 1,2-bis-[5-(2-methyl-pyridinium)-pent-1-ynyl]-benzene dibromide] | 2.1 | 1.2 | 25 |
| Cc1cc[n+](CCCc2ccc(-c3ccc(CCC[n+]4ccc(C)cc4)cc3)cc2)cc1 [Example 77, N,N′-[(1,1′-biphenyl)-4,4′-di-(3-propanyl)]-bis-(4-methylpyridinium)dibromide] | 0 | 0 | – |
| c1cc2c([n+](CCCc3ccc(-c4ccc(CCC[n+]5cccc6c5CCCC6)cc4)cc3)c1)CCCC2 [Example 75, N,N′-[(1,1′-biphenyl)-4,4′-di-(3-propanyl)]-bis-[5,6,7,8-tetrahydroquinolinium]dibromide] | 0.4 | 10 | – |
